Positions of bridges follow the written chain, without caps; N, C: chain ends. Non-standard residues stand in square brackets, D forms with d. Residues, ends and D or L forms follow the SMILES beside them. *: point of attachment. X6 = O=C(O)CCCCCCCCCCCCCCCCC(=O)N[C@@H](CCC(=O)NCCCOCCOCCOCCCN*)C(=O)O; Trp(1-CH2COOH) = N[C@@H](Cc1cn(CC(=O)O)c2ccccc12)C(=O)O; X14 = O=C(O)CCCCCCCCCCNC(=O)CCC(=O)NCCCOCCOCCOCCCN*; X9 = O=C(O)CCCCCCCCCCCCCCCCC(=O)N[C@@H](CCN*)C(=O)O; Phe(3,4,5-F3) = N[C@@H](Cc1cc(F)c(F)c(F)c1)C(=O)O; NH(CH2)16COOH = O=C(O)CCCCCCCCCCCCCCCCN*; d(cisHyp) = O=C(O)[C@H]1C[C@@H](O)CN1; PEG6 = NCCOCCOCCOCCOCCOCCOCCC(=O)O; Hyp = O=C(O)[C@@H]1C[C@@H](O)CN1; NHhexadecyl = CCCCCCCCCCCCCCCCN*; NMeF = CN[C@@H](Cc1ccccc1)C(=O)O; X32 = O=C(O)CCCCCCCCCCCCCCCCCCN*; Undecanoyl = CCCCCCCCCCC(=O)*; NMeNle = CCCC[C@H](NC)C(=O)O; Pip = O=C(O)[C@@H]1CCCCN1; NMeA = CN[C@@H](C)C(=O)O; Orn = NCCC[C@H](N)C(=O)O; Pra = C#CC[C@H](N)C(=O)O; Aun = NCCCCCCCCCCC(=O)O; Dab = NCC[C@H](N)C(=O)O; Dap = NC[C@H](N)C(=O)O

The record followed here is patent US10633419B2, “Immunomodulators” (BRISTOL-MYERS SQUIBB COMPANY, priority 2014, dated 2020).

The target of the first assay is T1, PD-L1 (Homo sapiens, UniProt Q9NZQ7).
T1 construct: hPDL1(19-239)-TVMV-His; made in house; host or cells: HEK293T
T1 sequence (Q9NZQ7 with tags, fused parts or gaps): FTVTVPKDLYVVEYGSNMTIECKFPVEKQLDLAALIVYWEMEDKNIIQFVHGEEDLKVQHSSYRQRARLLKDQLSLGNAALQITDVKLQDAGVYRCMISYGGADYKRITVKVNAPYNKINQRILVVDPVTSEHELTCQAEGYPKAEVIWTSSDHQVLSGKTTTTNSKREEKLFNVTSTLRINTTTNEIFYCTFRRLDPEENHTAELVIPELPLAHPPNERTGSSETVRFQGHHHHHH
In words: PD-1/PD-L1 Homogenous Time-Resolved Fluorescence (HTRF) binding assay (PD-1-Ig/PD-L1-His). The settings on record: inhibition of PD-1-Ig binding to PD-L1-TVMV-His; value given as number; read-out: HTRF IC50. Summed up: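 Inhibitors pre-incubated 15 min with PD-L1-His (10 nM final), then PD-1-Ig (20 nM final) added for 15 min in dPBS/0.1% BSA/0.05% Tween-20. Eu-cryptate anti-Ig (1 nM) and APC anti-His (20 nM) added, 30 min equilibration, 665/620 nm HTRF ratio read.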
On the technique in general: In TR-FRET formats the signal depends on donor and acceptor labels being close together.
With `CCCC[C@H]1C(=O)N(C)[C@@H](CCCC)C(=O)N[C@@H](CCCNC(=N)N)C(=O)N[C@H](C(=O)NCC(=O)NCCCCCCCCCCC(=O)NCCCCCCCCCCC(=O)O)CSCC(=O)N[C@@H](Cc2ccc(O)cc2)C(=O)N(C)[C@@H](C)C(=O)N[C@@H](CC(N)=O)C(=O)N2CCC[C@H]2C(=O)N[C@@H](Cc2cnc[nH]2)C(=O)N[C@@H](CC(C)C)C(=O)N2C[C@H](O)C[C@H]2C(=O)N[C@@H](Cc2c[nH]c3ccccc23)C(=O)N[C@@H](CO)C(=O)N[C@@H](Cc2c[nH]c3ccccc23)C(=O)N1C` [Example 11063] ({CH2CO}-Y[NMeA]NPHL[Hyp]WSW[NMeNle][NMeNle]RCG[Aun][Aun]-OH; thioether N-14), the IC50 (commonly the concentration that inhibits the measured activity by half) amounted to 9.2 nM.

Still in this assay, the particulars now being: inhibition of PD-1-Ig binding to PD-L1-TVMV-His; value given as range class; read-out: HTRF IC50.
In the case of `CCCCCCCCCCC(=O)NCCCC[C@H](NC(=O)[C@H](CC(=O)O)NC(=O)CNC(=O)[C@@H]1CSCC(=O)N[C@@H](Cc2ccc(O)cc2)C(=O)N(C)[C@@H](C)C(=O)N[C@@H](CC(=O)O)C(=O)N2CCC[C@H]2C(=O)N[C@@H](Cc2cnc[nH]2)C(=O)N[C@@H](CC(C)C)C(=O)N2C[C@H](O)C[C@H]2C(=O)N[C@@H](Cc2c[nH]c3ccccc23)C(=O)N[C@@H](CO)C(=O)N[C@@H](Cc2c[nH]c3ccccc23)C(=O)N(C)[C@@H](CCCC)C(=O)N(C)[C@@H](CCCC)C(=O)N[C@@H](CCCNC(=N)N)C(=O)N1)C(N)=O` [Example 11006] ({CH2CO}-Y[NMeA]DPHL[Hyp]WSW[NMeNle][NMeNle]RCGDK(Undecanoyl)-NH2; thioether N-14), the IC50 lay within 10 to 99 nM.

For `CCCC[C@H]1C(=O)N(C)[C@@H](CCCC)C(=O)N[C@@H](CC(C)C)C(=O)N[C@H](C(=O)NCC(=O)N[C@@H](CC(=O)NCC[C@H](NC(=O)CCCCCCCCCCCCCCCCC(=O)O)C(=O)O)C(=O)O)CSCC(=O)N[C@@H](Cc2ccc(OC)cc2)C(=O)N2CCCC[C@H]2C(=O)N[C@@H](CC(N)=O)C(=O)N2CCC[C@H]2C(=O)N[C@@H](Cc2c[nH]cn2)C(=O)N[C@@H](CCC(N)=O)C(=O)N2C[C@H](O)C[C@H]2C(=O)N[C@@H](Cc2c[nH]c3ccccc23)C(=O)N[C@@H](CCN)C(=O)N[C@@H](Cc2cn(CC(=O)O)c3ccccc23)C(=O)N1C` [Example 13156] ({CH2CO}-Y(Me)[Pip]NPHQ[Hyp]W[Dab][Trp(1-CH2COOH)][NMeNle][NMeNle]LCGD(X9)-OH; thioether N-14), the IC50 lay within 0.3 to 9.9 nM.

`CCCC[C@H]1C(=O)N(C)[C@@H](CCCC)C(=O)N[C@@H](CC(C)C)C(=O)N[C@H](C(=O)NCC(=O)N[C@@H](CC(=O)O)C(=O)N[C@@H](CC(=O)NCCCOCCOCCOCCCNC(=O)CC[C@H](NC(=O)CCCCCCCCCCCCCCCCC(=O)O)C(=O)O)C(=O)O)CSCC(=O)N[C@@H](Cc2ccc(O)cc2)C(=O)N(C)[C@@H](C)C(=O)N[C@@H](CC(N)=O)C(=O)N2CCC[C@H]2C(=O)N[C@@H](CN)C(=O)N[C@@H](CC(C)C)C(=O)N2C[C@H](O)C[C@H]2C(=O)N[C@@H](Cc2c[nH]c3ccccc23)C(=O)N[C@@H](CCN)C(=O)N[C@@H](Cc2cn(CC(=O)O)c3ccccc23)C(=O)N1C` [Example 11225] ({CH2CO}-Y[NMeA]NP[Dap]L[Hyp]W[Dab][Trp(1-CH2COOH)][NMeNle][NMeNle]LCGDD(X6)-OH; thioether N-14): the IC50 lay within 0.3 to 9.9 nM.

Regarding `CCCC[C@H]1C(=O)N(C)[C@@H](CCCC)C(=O)N[C@@H](CC(C)C)C(=O)N[C@H](C(=O)NCC(=O)N[C@@H](CC(=O)NCCCOCCOCCOCCCNC(=O)CC[C@H](NC(=O)CCCCCCCCCCCCCCCCC(=O)O)C(=O)O)C(=O)O)CSCC(=O)N[C@@H](Cc2ccc(O)cc2)C(=O)N(C)[C@@H](C)C(=O)N[C@@H](CC(=O)O)C(=O)N2CCC[C@H]2C(=O)N[C@@H](CN)C(=O)N[C@@H](CCC(=O)O)C(=O)N2C[C@H](O)C[C@H]2C(=O)N[C@@H](Cc2c[nH]c3ccccc23)C(=O)N[C@@H](CCN)C(=O)N[C@@H](Cc2cn(CC(=O)O)c3ccccc23)C(=O)N1C` [Example 11178] ({CH2CO}-Y[NMeA]DP[Dap]E[Hyp]W[Dab][Trp(1-CH2COOH)][NMeNle][NMeNle]LCGD(X6)-OH; thioether N-14), the IC50 lay within 0.3 to 9.9 nM.

As to `CCCCCCCCCCCCCCCCNC(=O)CNC(=O)CNC(=O)[C@@H]1CSCC(=O)N[C@@H](Cc2ccc(O)cc2)C(=O)N(C)[C@@H](C)C(=O)N[C@@H](CC(N)=O)C(=O)N2CCC[C@H]2C(=O)N[C@@H](CCN)C(=O)N[C@@H](CC(C)C)C(=O)N2C[C@H](O)C[C@H]2C(=O)N[C@@H](Cc2c[nH]c3ccccc23)C(=O)N[C@@H](CO)C(=O)N[C@@H](Cc2c[nH]c3ccccc23)C(=O)N(C)[C@@H](CCCC)C(=O)N(C)[C@@H](CCCC)C(=O)N[C@@H](CCCNC(=N)N)C(=O)N1` [Example 11104] ({CH2CO}-Y[NMeA]NP[Dab]L[Hyp]WSW[NMeNle][NMeNle]RCGG-NHhexadecyl; thioether N-14), the IC50 is 100 to 1600 nM.

Take `CCCC[C@H]1C(=O)N(C)[C@@H](CCCC)C(=O)N[C@@H](CCC(=O)O)C(=O)N[C@H](C(=O)NCC(=O)N[C@@H](Cc2cn(CCOCCOCCOCCOC)nn2)C(=O)NCC(N)=O)CSCC(=O)N[C@@H](Cc2ccc(O)cc2)C(=O)N(C)[C@@H](C)C(=O)N[C@@H](CC(=O)O)C(=O)N2CCC[C@H]2C(=O)N[C@@H](Cc2c[nH]cn2)C(=O)N[C@@H](CCCCN)C(=O)N2C[C@H](O)C[C@H]2C(=O)N[C@@H](Cc2c[nH]c3ccccc23)C(=O)N[C@@H](CCCCN)C(=O)N[C@@H](Cc2c[nH]c3ccccc23)C(=O)N1C` [Example 14063]: the IC50 lay in the range of 10 to 99 nM.

In the case of `CCCC[C@H]1C(=O)N(C)[C@@H](CCCC)C(=O)N[C@@H](CC(C)C)C(=O)N[C@H](C(=O)NCC(=O)NCC(=O)NCCCCCCCCCCCCCCCCCCC(=O)O)CSCC(=O)N[C@@H](Cc2ccc(O)cc2)C(=O)N(C)[C@@H](C)C(=O)N[C@@H](CC(N)=O)C(=O)N2CCC[C@H]2C(=O)N[C@@H](CN)C(=O)N[C@@H](CC(C)C)C(=O)N2C[C@H](O)C[C@H]2C(=O)N[C@@H](Cc2c[nH]c3ccccc23)C(=O)N[C@@H](CCN)C(=O)N[C@@H](Cc2cn(CC(=O)O)c3ccccc23)C(=O)N1C` [Example 11193] ({CH2CO}-Y[NMeA]NP[Dap]L[Hyp]W[Dab][Trp(1-CH2COOH)][NMeNle][NMeNle]LCGG-X32; thioether N-14), the IC50 is 10 to 99 nM.

In the case of `CCCC[C@H]1C(=O)N(C)[C@@H](CCCC)C(=O)N[C@@H](CCCNC(=N)N)C(=O)N[C@H](C(=O)NCC(=O)NCCCOCCOCCOCCCNC(=O)CCC(=O)NCCCCCCCCCCC(=O)O)CSCC(=O)N[C@@H](Cc2ccc(O)cc2)C(=O)N(C)[C@@H](C)C(=O)N[C@@H](CC(=O)O)C(=O)N2CCC[C@H]2C(=O)N[C@@H](Cc2cnc[nH]2)C(=O)N[C@@H](CC(C)C)C(=O)N2C[C@H](O)C[C@H]2C(=O)N[C@@H](Cc2c[nH]c3ccccc23)C(=O)N[C@@H](CO)C(=O)N[C@@H](Cc2c[nH]c3ccccc23)C(=O)N1C` [Example 11068] ({CH2CO}-Y[NMeA]DPHL[Hyp]WSW[NMeNle][NMeNle]RCG-X14; thioether N-14), the IC50 was in the range of 0.3 to 9.9 nM.

As for `CCCC[C@H]1C(=O)N(C)[C@@H](CCCC)C(=O)N[C@@H](CCCNC(=N)N)C(=O)N[C@H](C(=O)NCC(=O)NCC(=O)N[C@@H](CC(=O)O)C(=O)NCCCCCCCCCCC(=O)O)CSCC(=O)N[C@@H](Cc2ccc(O)cc2)C(=O)N(C)[C@@H](C)C(=O)N[C@@H](CC(=O)O)C(=O)N2CCC[C@H]2C(=O)N[C@@H](Cc2cnc[nH]2)C(=O)N[C@@H](CC(C)C)C(=O)N2C[C@H](O)C[C@H]2C(=O)N[C@@H](Cc2c[nH]c3ccccc23)C(=O)N[C@@H](CO)C(=O)N[C@@H](Cc2c[nH]c3ccccc23)C(=O)N1C` [Example 11069] ({CH2CO}-Y[NMeA]DPHL[Hyp]WSW[NMeNle][NMeNle]RCGGD[Aun]-OH; thioether N-14), the IC50 lay within 10 to 99 nM.

On to `CCCC[C@H]1C(=O)N(C)[C@@H](CCCC)C(=O)N[C@@H](CC(C)C)C(=O)N[C@H](C(=O)NCC(=O)NCC(=O)NCCCCCCCCCCCCCCCCC(=O)O)CSCC(=O)N[C@@H](Cc2ccc(O)cc2)C(=O)N(C)[C@@H](C)C(=O)N[C@@H](CC(N)=O)C(=O)N2CCC[C@H]2C(=O)N[C@@H](CN)C(=O)N[C@@H](CC(C)C)C(=O)N2C[C@H](O)C[C@H]2C(=O)N[C@@H](Cc2c[nH]c3ccccc23)C(=O)N[C@@H](CCN)C(=O)N[C@@H](Cc2cn(CC(=O)O)c3ccccc23)C(=O)N1C` [Example 11189] ({CH2CO}-Y[NMeA]NP[Dap]L[Hyp]W[Dab][Trp(1-CH2COOH)][NMeNle][NMeNle]LCGG-{NH(CH2)16COOH}; thioether N-14), for which the IC50 is 100 to 1600 nM.

Regarding `C#CC[C@H](NC(=O)CNC(=O)[C@@H]1CSCC(=O)N[C@@H](Cc2cc(F)c(F)c(F)c2)C(=O)N(C)[C@@H](Cc2ccccc2)C(=O)N(C)[C@@H](CCCC)C(=O)N2CCC[C@@H]2C(=O)N[C@@H](CC(=O)O)C(=O)N[C@@H](C(C)C)C(=O)N(C)[C@@H](Cc2ccccc2)C(=O)N[C@@H](CCCN)C(=O)N2CCC[C@@H]2C(=O)N[C@@H](Cc2c[nH]c3ccccc23)C(=O)N[C@@H](Cc2ccc(O)cc2)C(=O)N[C@@H](CC(C)C)C(=O)N1)C(N)=O` [INT 1400K, ClAc-F3Phe-mPhe-mNle-dPro-Asp-Val-mPhe-Orn-dPro-Trp-Tyr-Leu-Cys-Gly-[(S)-propargylglycine]] ({CH2CO}-[Phe(3,4,5-F3)][NMeF][NMeNle][dP]DV[NMeF][Orn][dP]WYLCG[Pra]-NH2; thioether N-13), the IC50 lay within 0.3 to 9.9 nM.

`CCCC[C@H]1C(=O)N(C)[C@@H](CCCC)C(=O)N[C@@H](CC(C)C)C(=O)N[C@H](C(=O)NCCOCCOCCOCCOCCOCCOCCC(=O)O)CSCC(=O)N[C@@H](Cc2ccc(O)cc2)C(=O)N(C)[C@@H](C)C(=O)N[C@@H](CC(N)=O)C(=O)N2CCC[C@H]2C(=O)N[C@@H](CO)C(=O)N[C@@H](CCC(N)=O)C(=O)N2C[C@H](O)C[C@@H]2C(=O)N[C@@H](Cc2c[nH]c3ccccc23)C(=O)N[C@@H](CO)C(=O)N[C@@H](Cc2cn(CC(=O)O)c3ccccc23)C(=O)N1C` [Example 11045] ({CH2CO}-Y[NMeA]NPSQ[d(cisHyp)]WS[Trp(1-CH2COOH)][NMeNle][NMeNle]LC[PEG6]-OH; thioether N-14): the IC50 was in the range of 10 to 99 nM.
